Measured values as given in patent US20030165486A1, “Compositions and methods for the induction of retinal detachments” (priority 1999, published 2003).
Read-outs that look alike come from different tables or passages of the source.

Assays:
[1] = test system: retina of rabbit eyes; type: in vivo; details: for Electro Retinography Results / Histological and Electron Microscopic Results / Retinal Detachment at 48 hours Post 2nd Injection / Retinal Reattachment at 3 weeks Post 2nd Injection: 50 μl of 75 I.U. hyaluronidase intravitreally, 3 days later 50 μl sterile PEG, n = 6; for Retinal Detachment at 48 hours Post 2nd Injection / Retinal Reattachment at 3 weeks Post 2nd Injection: fundus photos, β scans; for safety by indirect ophthalmoscopy, fundus photography, light and electron microscopy and electroretinography: intravitreal hyaluronidase followed by intravitreal PEG
Method: In this study, 12-pigmented rabbits were divided into 2 groups of 6 animals each. Group I consisted of six animals that were injected OD with PEG 300. […] As a control, these same animals received saline injections OS and thus served as a control group (Group Ia).
Group II consisted of six animals that were injected that were injected OD with PEG 400. […] As a control, these same animals received saline injections OS and thus served as a control group (Group IIa).
During this procedure a number of ophthalmic methodologies were utilized to monitor the effects and progress of the various experimental treatments. For example, indirect ophthalmoscopy was utilized by a retinal specialist to determine the effects of administering a retinal detaching dose of the compounds disclosed. […] Light microscopy and electron microscopy of eye samples was used to determine the effect of the treatments from a histological perspective. Ultrasonography techniques were used to objectively determine the presence of retinal detachment. Additionally, electroretinography was performed to determine changes due to treatment.

[2] = test system: eyes of rabbits
Method: Fifty-two (52) healthy rabbits of the New Zealand Cross variety (26 male, 26 female) weighing 1.5 kg to 2.5 kg were individually marked for identification and were housed individually in suspended cages. The animals received a commercially available pelleted rabbit feed on a daily basis, with tap water available ad libitum.
Two animals in each group (1 male, 1 female) were selected for pretreatment fundus photography and fluorescein angiography.
The fundus photography was performed by restraining the animals and visualizing the optic nerve, retinal arcades and fundus with a KOWA® RC-3 Fundus Camera loaded with Kodak Gold 200 ASA film.
The fluorescein angiography involved a 1.5-ml injection of 2% sterile fluorescein solution via the marginal ear vein. Approximately 30 seconds post-injection the fluorescein was visualized upon localization of the optic nerve, retinal vessels and fundus.
The following day, each animal was anesthetized by intravenous administration of a combination of 34 mg/kg of ketamine hydrochloride and 5-mg/kg xylazine. The eyelids were retracted using a lid speculum, and the eyes were disinfected with an iodine-povidone wash.
The experimental treatments administered to each animal group were as follows:
The day following the injections (Day 1) the 26 animals, which were subjected to the fundus photography and fluorescein angiography, were observed using the same methods as for the pre-dose examination.
Alternatively, one randomly selected rabbit was euthanized by pentobarbital injection but then fixed by intracardiac injection of the gluteraldehyde solution into the left ventricle to determine the effect of the fixation procedure on the histology findings within the enucleated eyes.
On Day 7, the 13 female rabbits that had been previously photographed and angiography performed were subjected to same observations following the methods previously described.
The remaining 26 animals were euthanized as described above 7 days after dosing. The eyes were fixed in the same manner as those, which had been fixed on day 2. […]

[3] = test system: detached retinas of cats; assay: Protection of surgically detached retina from degeneration in adult cats (Example 6); type: in vivo, adult cats (Felis domesticus); details: 100 μl of Table 5 formulation 6 hours after detachment, 3 days
Method: The study is performed on 15 adult cats (Felis domesticus) and modeled generally on the study of Mervin, et al., “Limiting Photoreceptor Death and Deconstruction During Experimental Retinal Detachment: The Value of Oxygen Supplementation,” Am. J. Ophthal. 128:155-164 (1999). Unlike the Mervin study however, the present experiment examines the effect of hyaluronidase administration to prevent photoreceptor death rather than the effect of supplemental oxygen administration.
Three groups of five adult domestic cats (Experimental Group I, Experimental Group II, and Control Group I) are anesthetized using 10 mg/kg of xylazine (Boehringer Ingelheim Vetmedica, Inc., St. Joseph, Mo.) and 50 mg/kg of ketamine (Sigma, St. Louis, Mo.). The surgical method of Anderson, et al., (Invest. Ophthalmol. Vis. Sci. 27:168-183 (1986)) is used to induce retinal detachment in two experimental groups of 5 cats each, however, the lens and vitreous of these cats are left in place during the surgical procedure.
During the procedure, a glass micropipette is introduced through a 20-gauge hole in the sclera at the region of the pars plana. A balanced salt solution (BSS) containing 0.25% sodium hyaluronate is then infused between the neural retina and retinal pigment epithelium. A single detachment is produced in the right eye of each of the 10 cats.
The experimental groups are allowed to recover for six hours. […]

[4] = test system: retina of rabbit eyes; assay: Induction of reversible retinal detachment in rabbits using varying concentration of PEG 300 (Example 5); type: in vivo
Method: In this study, 8-pigmented rabbits were divided into 4 groups of 2 animals each. Group I consisted of 2 animals treated with 100% PEG 300. As performed in Example 1, these animals were first injected intravitreally (OD) with 50 μl of 75 I.U. of Hyaluronidase solution (Group I). Fourteen days after the first injection these animals received 50 μl of 100% sterile PEG 300 intravitreally. The OS eye was used as the untreated control as described in Example 1 (Group Ia). A second group of two animals, Group II, was first injected intravitreally (OD) with 50 μl of 75 I.U. of Hyaluronidase solution and then injected 14 days later with 50 μl of sterile 75% solution of PEG 300 intravitreally. The OS eyes of these animals were used as the untreated controls (Group IIa). […] were treated according to the same protocols as described for Groups I, Ia, II, and IIa with the exception that Group III received 50 μl of 50% sterile solution of PEG 300 intravitreally. Similarly, Groups IV and IVa were treated according to the same protocols as described above, however, Group IV received 50 μl of 25% sterile solution of PEG 300 intravitreally.
All retinal detachments and retinal re-attachments were documented using Fundus Photography and Ultrasonography (β-Scan). In addition, 3 rabbit eyes were enucleated and the eyes were prepared for light microscopy as well as for Electron Microscopy.

[5] = 75 I.U. hyaluronidase, 14 days later varying concentrations of PEG 300
[6] = Groups I-IV OD: 75 I.U. hyaluronidase, 14 days later 50 μl sterile 100%, 75%, 50% or 25% PEG 300, fundus photos, β scans

Compound | Electro Retinography Results [1] | Histological and Electron Microscopic Results [1] | Retinal Detachment at 48 hours Post 2nd Injection [1] | Retinal Reattachment at 3 weeks Post 2nd Injection [1] | safety by indirect ophthalmoscopy, fundus photography, light and electron microscopy and electroretinography [1] | treatment-related toxicities, eyes examined grossly and microscopically ([2]; Group 2, BSS+thimerosal 0.0075 mg, day 2) | treatment-related toxicities, eyes examined grossly and microscopically ([2]; Group 2, BSS+thimerosal 0.0075 mg, day 7) | treatment-related toxicities, eyes examined grossly and microscopically ([2]; Group 3, BSS+thimerosal 0.025 mg, day 2 and 7 post dose) | thickness of the outer nuclear layer after retinal detachment surgery [3] | time to induced retinal detachment after second intravitreal injection [4, 5] [h] | time to spontaneous retinal re-attachment after the PEG injection [4, 5] [weeks] | Retinal Detachment At 48 hours Post 2nd Injection [4, 6] | Retinal Reattachment At 3 weeks Post 2nd Injection [4, 6] | Histological and Electron Microscopic Results ([4]; Groups I-IV OD: 100%, 75%, 50% or 25% PEG 300, 3 enucleated eyes) | Electro Retinography Results ([4]; Groups I-IV OD: 100%, 75%, 50% or 25% PEG 300, after retinal detachment and spontaneous re-attachment 3 weeks later) | safety / toxicity of intravitreal injection ([4]; hyaluronidase followed by PEG 300 at 100%, 75%, 50% and 25% in saline vehicle)
Polyethylene Glycol 400 [PEG 400] | Normal | Normal | All | All | safe and without causing any toxicity | – | – | – | – | – | – | – | – | – | – | –
C[CH2][Hg][S]c1ccccc1C(=O)[O-].[Na+] [thimerosal] | – | – | – | – | – | free of toxicity | breakdown of the blood retinal barrier | severe treatment-related toxic effects | – | – | – | – | – | – | – | –
Polyethylene Glycol 300 [PEG 300] | Normal | Normal | All | All | safe and without causing any toxicity | – | – | – | Thinning of the outer nuclear layer is observed | ≤ 48 | ≤ 3 | All | All | No Adverse | No Adverse | safe and without causing any toxicity
